Assay [1] deals with T1, hGPR38R (Homo sapiens, UniProt O43193). Description: GPR38 FLIPR functional agonist assay. The following applies: HEK-293 cells stably expressing the GPR38 receptor, agonist response, Fluo-4 fluorescence. The arrangement: expressed in transfected cells. Format: cell-based. On the procedure: The potencies and efficacies of the compounds of this invention for GPR^38 can be determined by FLIPR assay performed on the human cloned receptor as described herein. It has been found, using the FLIPR functional assay, that compounds of formula (I) appear to be partial or full agonists of the GPR38 receptor.
GPR38FLIPR Functional Agonist Assay Protocol
HEK-293 cells stably expressing the GPR38 receptor were seeded (10,000 cells/well) into poly-D-lysine coated 384-well black-wall, clear-bottom microtitre plates (Becton Dickinson) 24 h prior to assay. On day of assay, cells were washed (×2) with 80 ul of assay buffer (Hanks Balanced Salts Solution (HBSS), 10 mM HEPES, 200 μM Ca^2+, 2.5 mM probenecid) using the EMBLA cell washer. After the final wash, buffer was aspirated to leave a residual volume of 30 ul on the cells. Cells were loaded with 1 μM (final) Fluo-4-AM fluorescent indicator dye (TefLabs) in assay buffer, (20 ul loading solution added to each well using the Multidrop). Plates were incubated for 1 h at 37° C., before being washed (×3) with 80 ul assay buffer using the EMBLA cell washer; 30 ul residual being left after the final wash. Plates were then assayed on a Fluorometric Imaging Plate Reader (FLIPR, Molecular Devices). Test compounds were prepared in assay buffer without probenecid, but containing 0.03% CHAPS. In the FLIPR, 10 ul of test compound was added to the cells and changes in fluorescence measured over a 2 min timeframe. Maximum change in fluorescence over baseline was used to determine agonist response and concentration response curves were constructed, using a 4-parameter logistic equation.
(§1) The following alternative procedure may also be used:
HEK-293 cells stably expressing the GPR38 receptor were seeded (30,000 cells/100 ul growth media/well) into poly-D-lysine coated 96-well black-wall, clear-bottom microtitre plates (Corning) 24 hours prior to assay. On the day of assay the cells were loaded with 2 μM (final) Fluo-4-AM fluorescent indicator dye (Molecular Probes) and 1 mM (final) probenicid in assay buffer (145 mM sodium chloride, 2.5 mM potassium chloride, 10 mM Hepes, 10 mM glucose, 1.2 mM magnesium chloride, 1.5 mM calcium chloride and 0.1% BSA) (50 ul loading solution added to each well). Plates were incubated for 1 hour at 25° C., before being washed 4 times with 100 ul assay buffer using the EMBLA cell washer; 150 ul residual being left after the final wash. The cells were then incubated at 25° C. for 20 minutes and the plates were then assayed on a Fluorometric Imaging Plate Reader (FLIPR, Molecular Devices). Test compounds were prepared in assay buffer without probenecid. In the FLIPR, 50 ul of test compound was added to the cells and changes in fluorescence measured over a 2 minute timeframe. Maximum change in fluorescence over baseline was used to determine agonist response and concentration response curves were constructed, using a 4-parameter logistic equation.
Target sequence in this assay (O43193 whole entry): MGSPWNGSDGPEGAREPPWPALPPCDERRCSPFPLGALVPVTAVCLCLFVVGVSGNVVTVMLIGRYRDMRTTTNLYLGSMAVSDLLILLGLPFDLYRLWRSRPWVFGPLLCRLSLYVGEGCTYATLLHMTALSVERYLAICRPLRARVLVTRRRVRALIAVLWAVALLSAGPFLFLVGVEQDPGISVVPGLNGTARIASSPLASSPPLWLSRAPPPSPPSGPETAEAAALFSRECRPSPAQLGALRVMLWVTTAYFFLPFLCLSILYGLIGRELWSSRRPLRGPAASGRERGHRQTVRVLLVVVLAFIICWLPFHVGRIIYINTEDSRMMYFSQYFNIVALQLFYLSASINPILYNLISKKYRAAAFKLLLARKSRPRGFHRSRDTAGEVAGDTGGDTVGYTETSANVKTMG

For assay [2], the target named is T1, hGPR38R. Description: GPR38 GTPγS functional agonist assay. Format: biochemical. Further details: expressed in transfected cells; host or cells: HEK293 (transient transfection; P2 membrane fractions). How it is done: The potencies and intrinsic activities of the compounds of this invention can also be determined according to the [35S]GTPγS functional assay which is described herein. It has been found, using the [35S]GTPγS functional assay, that compounds of formula (I) appear to be partial or full agonists of the GPR38 receptor.
GPR38GTPγS Functional Agonist Assay Protocol
For each compound being assayed, in an Opti clear bottom 96 well plate, is added:—
(a) 20 μl of test compound (or 10 μl of guanosine 5′-triphosphate (GTP) as non-specific binding control) diluted to required concentration in assay buffer (20 mM N-2-Hydroxyethylpiperazine-N′-2-ethanesulfonic acid (HEPES)+100 mM NaCl+10 mM MgCl2, pH adjusted to 7.4 with NaOH); (b) 60 μl bead/membrane/GDP mix prepared by suspending wheat germ agglutinin-polyvinyltoluene (WGA-PVT) scintillation proximity assay (SPA) beads at 100 mg/ml in assay buffer followed by mixing with membrane (prepared in accordance with the methodology described above) and diluting in assay buffer to give a final volume of 60 μl which contains 10 μg protein and 0.5 mg bead per well—mixture is pre-mixed at 4° C. for 30 min on a roller and just prior to addition to the plate, 10 μM final concentration of guanosine 5′ diphosphate (GDP—diluted in assay buffer) is added; (c) 20 μl guanosine 5′ [γ35-S]thiotriphosphate, triethylamine salt (Amersham; radioactivity concentration=37 kBq/μl or 1 mCi/ml; Specific Activity 1160 Ci/mmol) diluted to 1.9 nM in assay buffer to give 0.38 nM final.
The plate is incubated on a shaker at 25° C. for 30 min followed by centrifugation for 5 min at 1500 rpm. The plate is read between 3 and 6 h after completion of centrifuge run in a Wallac Microbeta counter on a 1 min normalised tritium count protocol. Data is analysed using a 4-parameter logistic equation. Basal activity used as minimum.
as §1
Target sequence in this assay (O43193 whole entry): as above
Target sequence in this assay (P09471 2-354 partner limits assumed): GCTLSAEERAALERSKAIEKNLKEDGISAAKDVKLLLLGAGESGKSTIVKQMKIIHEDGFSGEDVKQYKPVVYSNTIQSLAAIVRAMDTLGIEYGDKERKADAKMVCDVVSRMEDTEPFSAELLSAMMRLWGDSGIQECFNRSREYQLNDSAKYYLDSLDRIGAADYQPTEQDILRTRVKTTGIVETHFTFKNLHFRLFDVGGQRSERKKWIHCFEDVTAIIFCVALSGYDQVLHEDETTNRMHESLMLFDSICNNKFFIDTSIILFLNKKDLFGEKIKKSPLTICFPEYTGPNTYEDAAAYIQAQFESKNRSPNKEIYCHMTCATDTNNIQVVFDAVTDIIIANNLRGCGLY
Target sequence in this assay (P62873 2-340 partner limits assumed): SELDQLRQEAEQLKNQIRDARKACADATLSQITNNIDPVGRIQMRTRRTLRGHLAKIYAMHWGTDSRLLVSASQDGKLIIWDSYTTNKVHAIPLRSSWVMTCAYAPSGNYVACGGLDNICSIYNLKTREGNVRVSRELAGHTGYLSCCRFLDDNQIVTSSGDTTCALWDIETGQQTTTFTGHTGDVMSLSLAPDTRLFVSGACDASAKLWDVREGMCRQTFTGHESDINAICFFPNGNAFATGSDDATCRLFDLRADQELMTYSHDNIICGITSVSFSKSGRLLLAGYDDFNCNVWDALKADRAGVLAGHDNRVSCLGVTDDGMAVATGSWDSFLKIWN
Target sequence in this assay (P59768 2-68 partner limits assumed): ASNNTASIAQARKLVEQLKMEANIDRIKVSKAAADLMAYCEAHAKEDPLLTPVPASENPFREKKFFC
Membranes are derived from bulk cell cultures of HEK293 cell lines transiently transfected with hGPR38R and Go G-protein. P2 membranes fractions are prepared, aliquoted and stored at −80° C.
For each compound being assayed, the following is added into a white Greiner 384 well plate:—
(a) 1 μl of test compound diluted to required concentration in DMSO. (b) 20 μl bead/membrane/Saponin/GDP mix prepared as follows;—suspension of LEADseeker wheat germ agglutinin (WGA) scintillation proximity assay (SPA) beads at 25 mg/ml in assay buffer (20 mM N-2-Hydroxyethylpiperazine-N′-2-ethanesulfonic acid (HEPES)+100 mM NaCl+10 mM MgCl2, pH adjusted to 7.4 with KOH) containing saponin at 150 ug/ml. Mixing of bead suspension with membranes at 500 ug/ml (prepared in accordance with the methodology described above) and diluting in assay buffer to give a final volume of 20 μl which contains 5 μg protein and 0.25 mg bead per well.
Mixture is pre-mixed for 30 minutes on a roller and just prior to addition to the plate, 3 μM final assay concentration of guanosine 5′ diphosphate (GDP) (diluted in assay buffer) is added.
(c) 25 μl guanosine 5′ [γ35-S]thiotriphosphate, triethylamine salt (Amersham; radioactivity concentration=37 kBq/μl or 1 mCi/ml; Specific Activity 1160 Ci/mmol) diluted to 0.6 nM in assay buffer to give 0.33 nM final assay concentration.
The plate is then spun for 2 minutes at 1500 rpm and then incubated at room temperature for 4 hours. The plate is then read on a Viewlux Plux (Perkin Elmer). Data is analysed using a 4-parameter logistic equation.

The mark [3] stands for this setting: read-out: pEC50 in the FLIPR assay (converted).
Where [4] appears, read: [35S]GTPγS SPA, HEK293 membranes with hGPR38R and Go G-protein, read-out: pEC50 in the GTPγS assay (converted).

In the case of `C[C@@H]1CN(Cc2ccc(-c3cccnc3C(=O)N3CCC(Oc4cccc(F)c4)CC3)cc2F)C[C@H](C)N1` [Example 35, (3R,5S)-1-({2-fluoro-4-[2-({4-[(3-fluorophenyl)oxy]-1-piperidinyl}carbonyl)-3-pyridinyl]phenyl}methyl)-3,5-dimethylpiperazine], on hGPR38R [1] (setting [3]), the EC50 was less than 0.316 µM.

Regarding `C[C@@H]1CN(Cc2ccc(-c3cccnc3C(=O)N3CCC(Nc4ccc(F)cc4)CC3)cc2F)C[C@H](C)N1` [Example 9, 1-{[3-(4-{[(3R,5S)-3,5-dimethyl-1-piperazinyl]methyl}-3-fluorophenyl)-2-pyridinyl]carbonyl}-N-(4-fluorophenyl)-4-piperidinamine], the EC50 is less than 0.316 µM on hGPR38R [1] (pEC50 in the FLIPR assay) and less than 3.16 µM on hGPR38R [2].

For the compound `C[C@@H]1CN(Cc2ccc(-c3cccnc3C(=O)N3CC[C@H](Oc4ccc(F)cc4)C3)cc2)C[C@H](C)N1` [Example 18, (3R,5S)-1-({4[2-({(3S)-3-[(4-fluorophenyl)oxy]-1-pyrrolidinyl}carbonyl)-3-pyridinyl]phenyl}methyl)-3,5-dimethylpiperazine], the EC50 at hGPR38R [1] (setting [3]) is less than 0.316 µM; at hGPR38R [2] (setting [4]) it was less than 3.16 µM.

As for `C[C@@H]1CN(Cc2ccc(-c3cccnc3C(=O)N3CCC(Nc4cccc(C#N)c4)CC3)cc2F)C[C@H](C)N1` [Example 30, 3-[(1-{[3-(4-{[(3R,5S)-3,5-dimethyl-1-piperazinyl]methyl}-3-fluorophenyl)-2-pyridinyl]car-bonyl}-4-piperidinyl)amino]benzonitrile], on hGPR38R [2] (setting [4]), the EC50 was less than 3.16 µM.

Regarding `C[C@@H]1CN(Cc2ccc(-c3cccnc3C(=O)N3CCC(Nc4cccc(C#N)c4)CC3)cc2)C[C@H](C)N1` [Example 29, 3-[(1-{[3-(4-{[(3R,5S)-3,5-dimethyl-1-piperazinyl]methyl}phenyl)-2-pyridinyl]carbonyl}-4-piperidinyl)amino]benzonitrile], the results for the EC50 on hGPR38R [1] (setting [3]) and on hGPR38R [2] (setting [4]) were less than 0.316 µM and less than 3.16 µM, respectively.

Turning to `C[C@H]1CN(Cc2ccc(-c3cccnc3C(=O)N3CCC(Nc4ccc(F)cc4)CC3)cc2)CCN1` [Example 8, N-(4-Fluorophenyl)-1-{[3-(4-{[(3S)-3-methyl-1-piperazinyl]methyl}phenyl)-2-pyridinyl]carbonyl}-4-piperidinamine], the results for the EC50 at hGPR38R [1] (pEC50 in the FLIPR assay) and on hGPR38R [2] were less than 0.316 µM and less than 3.16 µM, respectively.

Take `C[C@@H]1CN(Cc2ccc(-n3ccnc3C(=O)N3CCC(Nc4ccc(F)cc4)CC3)cc2)C[C@H](C)N1` [Example 22, 1 {[1-(4-{[(3R,5S)-3,5-Dimethyl-1-piperazinyl]methyl}phenyl)-1H-imidazol-2-yl]carbonyl}-N-(4-fluorophenyl)-4-piperidinamine]: the EC50 is less than 0.316 µM at hGPR38R [1] (pEC50 in the FLIPR assay) and less than 3.16 µM on hGPR38R [2].

In the case of `C[C@@H]1CN(Cc2ccc(-c3cccnc3C(=O)N3CCC(Cc4ccc(F)cc4)CC3)cc2)C[C@H](C)N1` [Example 1, (3R,5S)-3,5-Dimethyl-1-({4-[2-({4-[(4-Fluorophenyl)methyl]piperidin-1-yl}carbonyl)pyridin-3-yl]phenyl}methyl)piperazine], the EC50 at hGPR38R [1] (setting [3]) is less than 0.316 µM; at hGPR38R [2] (setting [4]) it was less than 3.16 µM.

Take `C[C@@H]1CN(Cc2ccc(-n3ccnc3C(=O)N3CCC(Nc4ccccc4F)CC3)cc2)C[C@H](C)N1` [Example 23, 1-{[1-(4-{[(3R,5S)-3,5-dimethyl-1-piperazinyl]methyl}phenyl)-1H-imidazol-2-yl]carbonyl}-N-(2-fluorophenyl)-4-piperidinamine]: at hGPR38R [2], the EC50 was less than 3.16 µM.

Compound `Cc1nc(C(=O)N2CCC(Nc3ccc(F)cc3)CC2)c(-c2ccc(CN3C[C@@H](C)N[C@@H](C)C3)cc2)s1` [Example 5] registered an EC50 at hGPR38R [2] of less than 3.16 µM.

Take `C[C@@H]1CN(Cc2ccc(-c3cccnc3C(=O)N3CCC(Nc4cc(F)cc(F)c4)CC3)cc2F)C[C@H](C)N1` [Example 27, N-(3,5-difluorophenyl)-1-{[3-(4-{[(3R,5S)-3,5-dimethyl-1-piperazinyl]methyl}-3-fluorophenyl)-2-pyridinyl]carbonyl}-4-piperidinamine]: the EC50 on hGPR38R [2] was less than 3.16 µM.

In the case of `C[C@@H]1CN(Cc2ccc(-n3ccnc3C(=O)N3CCC(Nc4cccc(F)c4)CC3)cc2F)C[C@H](C)N1` [Example 25, 1-{[1-(4-{[(3R,5S)-3,5-dimethyl-1-piperazinyl]methyl}-3-fluorophenyl)-1H-imidazol-2-yl]carbonyl}-N-(3-fluorophenyl)-4-piperidinamine], at hGPR38R [2], the EC50 was less than 3.16 µM.

As to `Cc1nc(CN(C)C(=O)COc2ccc(F)cc2)c(-c2ccc(CN3C[C@@H](C)N[C@@H](C)C3)cc2)s1` [Example 7, N-{[5-(4-{[(3R,5S)-3,5-dimethyl-1-piperazinyl]methyl}phenyl)-2-methyl-1,3-thiazol-4-yl]methyl}-2-[(4-fluorophenyl)oxy]-N-methylacetamide], the EC50 at hGPR38R [2] (setting [4]) is less than 3.16 µM.

As to `C[C@@H]1CN(Cc2ccc(-n3ccnc3C(=O)N3CCC(Nc4ccc(F)cc4)CC3)cc2F)C[C@H](C)N1` [Example 24, 1-{[1-(4-{[(3R,5S)-3,5-dimethyl-1-piperazinyl]methyl}-3-fluorophenyl)-1H-imidazol-2-yl]carbonyl}-N-(4-fluorophenyl)-4-piperidinamine], the EC50 on hGPR38R [2] was less than 3.16 µM.

Consider `Cc1nc(C(=O)N2CCC(Cc3ccc(F)cc3)CC2)c(-c2ccc(CN3C[C@@H](C)N[C@@H](C)C3)cc2)s1` [Example 4, (3R,5S)-3,5-Dimethyl-1-({4-[4-({4-[(4-fluorophenyl)methyl]piperidin-1-yl}carbonyl)-2-methyl-1,3-thiazol-5-yl]phenyl}methyl)piperazine], for which the EC50 on hGPR38R [2] (setting [4]) was less than 3.16 µM.

Source of the values: patent US20080312209A1, “Piperazine Heteroaryl Derivatives as Gpr38 Agonists” (Glaxo Group Limited, priority 2005, published 2008).
